From patent US6569875B1, “Fungicide mixtures based on pyridin carboxamides and benzimidazoles or the precursors thereof” (priority 1997, dated 2003)

System: Botrytis cinerea
Experiment: Activity against Botrytis cinerea on bell pepper leaves (sprayed green bell pepper fruit disks, protective)
Format: in vivo
Details: single active ingredient, 4 ppm in the spray liquor, inoculated 2 hours after spray coating dried, 18° C., 4 days, visual evaluation
Procedure: The active ingredients, separately or together, are formulated as a 10% emulsion in a mixture of 63% by weight of cyclohexanone and 27% by eight of emulsifier, and diluted with water to the desired concentration.
Evaluation is carried out by determining the infected leaf areas in percent. These percentages are converted into efficacies. The efficacy (W) is calculated as follows using Abbot's formula: […]
α corresponds to the fungal infection of the treated plants in % and β corresponds to the fungal infection of the untreated (control) plants in % An efficacy of 0 means that the infection level of the treated plants corresponds to that of the untreated control plants; an efficacy of 100 means that the treated plants were not infected.
The expected efficacies of the mixtures of the active ingredients were determined using Colby's formula [R. S. Colby, Weeds 15, 20-22 (1967)] and compared with the observed efficacies.
Colby formula: E=x+Y−x·y/100
E expected efficacy, expressed in % of the untreated control, when using the mixture of the active ingredients A and B at the concentrations a and b x efficacy, expressed in % of the untreated control, when using active ingredient A at the concentration a y efficacy, expressed in % of the untreated control, when using active ingredient B at the concentration b Disks of green bell peppers were sprayed to runoff point with an aqueous preparation of active ingredient which had been prepared from a stock solution comprising 10% of active ingredient, 63% of cyclohexanone and 27% of emulsifier. 2 hours after the spray coating had dried on, the fruit disks were inoculated with a spore suspension of Botrytis cinerea containing 1.7×10^6 spores per ml of a 2% strength Biomalz solution. The inoculated fruit disks were subsequently incubated in humid chambers at 18° C. for 4 days. The Botyrtis infection on the diseased fruit disks was then evaluated visually.

Row | Compound | Efficacy in % of the untreated control
1 | O=C(Nc1ccccc1-c1ccc(Cl)cc1)c1cccnc1Cl [Compound I.2] | 40%
2 | O=C(Nc1ccccc1-c1ccc(F)cc1)c1cccnc1Cl [Compound I.1] | 0%
3 | CCCCNC(=O)n1c(NC(=O)OC)nc2ccccc21 [Compound II.a, methyl 1-(butylcarbamoyl)benzimidazol-2-ylcarbamate] | 10%
4 | COC(=O)NC(=S)Nc1ccccc1NC(=S)NC(=O)OC [Compound II.f, dimethyl 4,4′-(o-phenylene)-bis(3-thioallophanate)] | 10%
